Measured values as given in patent publication EP4523686A1, “A SIGMA-1 RECEPTOR POSITIVE MODULATOR FOR ITS USE IN THE PREVENTION AND THE TREATMENT OF A PATHOLOGY” (priority 2023, dated 2025).

What was measured:
5-HT1B receptor = target: T1, 5-HT1B receptor (Homo sapiens, UniProt P28222); assay: CEREP in vitro binding assay (pharmacological profiling)
T1 construct: CEREP

[1] = system: Aβ25-35-induced learning impairments in mice; assay: Spontaneous alternation in the Y-maze, Aβ25-35 model of Alzheimer's disease; format: in vivo; conditions: 0.3-3 mg/kg IP, all doses, single administration on day 1, test on day 8
Experimental: Amyloid-β[25-35] peptide (Aβ25-35) was from Eurogentec (Angers, France). It was solubilized in distilled water at 3 mg/ml and stored at -20°C until use. Before injection, the peptide was incubated at 37°C for 4 days, allowing oligomerization. Control injection was performed with vehicle solution (distilled water), and intracerebroventricularly (ICV) injections were done as described previously (Maurice et al., 1996, 2019).
The Y-maze is made of grey polyvinylchloride. Each arm is 40 cm long, 13 cm high, 3 cm wide at the bottom, 10 cm wide at the top, and converging at an equal angle. Each mouse was placed at the end of one arm and allowed to move freely through the maze during an 8 min session. The series of arm entries, including possible returns into the same arm, were checked visually. An alternation is defined as entries into all three arms on consecutive occasions. The number of maximum alternations is therefore the total number of arm entries minus two and the percentage of alternation was calculated as (actual alternations / maximum alternations) × 100 (Maurice et al., 1996; Meunier et al., 2006, 2013). Exclusion criteria are locomotion < 10 or percentage of alternation < 25% or > 90%. Animals showing these readouts are excluded from the calculations. Attrition is routinely < 5% in this test. […]

5-HT3 receptor = target: T2, 5-HT3 receptor (Homo sapiens, UniProt P46098); assay: CEREP in vitro binding assay (pharmacological profiling)
T2 construct: CEREP
T2 sequence (P46098 24-478): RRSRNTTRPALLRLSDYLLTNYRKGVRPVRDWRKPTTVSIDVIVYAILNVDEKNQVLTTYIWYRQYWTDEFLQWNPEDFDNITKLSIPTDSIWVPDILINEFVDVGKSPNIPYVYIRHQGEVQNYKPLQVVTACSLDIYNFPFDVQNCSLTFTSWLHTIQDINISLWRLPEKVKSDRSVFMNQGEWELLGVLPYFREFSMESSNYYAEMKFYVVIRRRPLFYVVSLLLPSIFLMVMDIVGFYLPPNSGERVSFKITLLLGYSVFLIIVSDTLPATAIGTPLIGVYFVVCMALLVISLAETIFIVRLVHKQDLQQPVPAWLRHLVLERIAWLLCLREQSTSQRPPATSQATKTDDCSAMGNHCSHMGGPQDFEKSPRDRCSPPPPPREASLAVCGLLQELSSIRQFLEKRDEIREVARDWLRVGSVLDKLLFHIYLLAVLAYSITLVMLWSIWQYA
Experimental: (§1) Table 1 represents pharmacological profiling of convolamine which was tested at […] and 1 µM in in vitro binding assays designed with appropriate reference compounds in duplicates at CEREP facility.

CB2 receptors = target: T3, CB2 receptors (Homo sapiens, UniProt P34972); assay: as above; conditions: at micromolar concentrations; range given jointly for CB2, Kv, 5-HT3
T3 construct: CEREP
T3 sequence (P34972 whole entry): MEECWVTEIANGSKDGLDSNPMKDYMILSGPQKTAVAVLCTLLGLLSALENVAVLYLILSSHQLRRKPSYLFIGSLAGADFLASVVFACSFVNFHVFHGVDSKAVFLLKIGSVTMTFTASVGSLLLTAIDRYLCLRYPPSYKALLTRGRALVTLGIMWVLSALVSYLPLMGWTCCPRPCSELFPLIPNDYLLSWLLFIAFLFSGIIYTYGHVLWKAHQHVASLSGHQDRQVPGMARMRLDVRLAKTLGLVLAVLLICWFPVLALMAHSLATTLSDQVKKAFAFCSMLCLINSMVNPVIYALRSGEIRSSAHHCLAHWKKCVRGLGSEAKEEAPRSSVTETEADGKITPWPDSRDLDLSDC
Experimental: as §1

Kv channel = assay: as above
Wfs1^ΔExon8 mice = assay: Step-through passive avoidance, Wolfram syndrome mouse model; format: in vivo; conditions: IP 20 min before training, retention 24 h after training
Excerpt: The apparatus is a two-compartments (15 × 20 × 15 cm high) box with one illuminated with white polyvinylchloride walls and the other darkened with black polyvinylchloride walls and a grid floor. A guillotine door separates each compartment. A 60 W lamp positioned 40 cm above the apparatus lights up the white compartment during the experiment. Scrambled foot shocks (0.3 mA for 3 s) could be delivered to the grid floor using a shock generator scrambler (Lafayette Instruments, Lafayette, USA). The guillotine door was initially closed during the training session. Each mouse was placed into the white compartment. After 5 s, the door was raised. When the mouse entered the darkened compartment and placed all its paws on the grid floor, the door is closed and the foot shocks delivered for 3 s. The step-through latency (STL-Tg), that is, the latency spent to enter the darkened compartment, and the number of vocalizations were recorded. The retention test was carried out 24 h after training. Each mouse was placed again into the white compartment. After 5 s, the door was raised. The step-through latency (STL-R) was recorded up to 300 s (Meunier et al., 2006, 2013; Villard et al., 2009, 2011). An exclusion criteria was STL-Tg and STL-R < 10 s. Animals showing these readouts are excluded from the calculations. Attrition is routinely < 5% in this test.

SIG-1R = target: T4, SIG-1R (Homo sapiens, UniProt Q99720); assay: In vitro binding to SIG-1R ([3H](+)-pentazocine, Jurkat cell membranes, CEREP); conditions: for inhibition of the binding / displacement of SIG-1R radioligand (in words): no concentration stated
T4 construct: incubated with 15 nM of [^3H](+)-pentazocine in membranes preparations from Jurkat human leukemic T cells; host or cells: Jurkat human leukemic T cells (membrane preparation)
T4 sequence (Q99720 whole entry): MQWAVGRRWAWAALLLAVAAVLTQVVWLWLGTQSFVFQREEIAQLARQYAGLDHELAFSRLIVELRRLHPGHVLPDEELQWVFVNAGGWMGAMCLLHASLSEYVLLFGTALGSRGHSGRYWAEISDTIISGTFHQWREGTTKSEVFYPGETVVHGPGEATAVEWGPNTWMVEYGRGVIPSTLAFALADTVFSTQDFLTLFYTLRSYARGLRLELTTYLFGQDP
Experimental: The assay was performed by CEREP (Celle l'Evescault, France) (study 100062023). SIG-1R binding was performed according to Ganapathy et al. (1999). Increasing drug concentrations (100 nM to 30 µM) were incubated with 15 nM of [^3H](+)-pentazocine in membranes preparations from Jurkat human leukemic T cells. Samples were incubated during 120 min at 37°C and nonspecific binding level was determined using 10 µM of haloperidol. S2R binding was performed according to Ganapathy et al. (1999). Increasing drug concentrations (100 nM to 30 µM) were incubated with 25 nM of [^3H]ditolyl-guanidine in membranes preparations from Jurkat human leukemic T cells. Samples were incubated during 60 min at room temperature and nonspecific binding level was determined using 10 µM of haloperidol. Assays were performed in duplicates and results were expressed as % of specific binding level.

[2] = at micromolar concentrations, range given jointly for CB2, Kv, 5-HT3

T1 sequence (P28222 whole entry): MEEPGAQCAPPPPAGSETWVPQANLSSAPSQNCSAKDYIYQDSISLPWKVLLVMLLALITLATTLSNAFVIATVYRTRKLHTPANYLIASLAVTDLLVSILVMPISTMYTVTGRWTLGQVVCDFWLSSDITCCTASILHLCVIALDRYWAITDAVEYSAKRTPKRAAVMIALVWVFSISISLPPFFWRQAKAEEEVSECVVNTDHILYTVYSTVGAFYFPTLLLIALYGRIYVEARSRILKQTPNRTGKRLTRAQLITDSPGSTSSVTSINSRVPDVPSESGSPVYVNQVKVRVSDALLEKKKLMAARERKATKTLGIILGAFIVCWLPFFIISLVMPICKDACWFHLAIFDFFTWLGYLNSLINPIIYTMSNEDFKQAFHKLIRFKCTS

## COc1ccc(C(=O)OC2CC3CCC(C2)N3C)cc1OC (centres unmarked) [Convolamine, (8-methyl-8-azabicyclo[3.2.1]octan-3-yl) 3,4-dimethoxybenzoate]
5-HT1B receptor
  stimulation of specific binding: 30-40%
5-HT1B receptor; 0.1 µM, duplicates, negative = stimulation of binding
  inhibition at 0.1 µM: -33%
5-HT1B receptor; 1 µM, duplicates, negative = stimulation of binding
  inhibition at 1 µM: -38.6%
[1]
  Aβ25-35-induced deficit in spontaneous alternation (in words): significantly attenuated
5-HT3 receptor; 0.1 µM, duplicates
  inhibition at 0.1 µM: 16.2%
5-HT3 receptor; 1 µM, duplicates
  inhibition at 1 µM: 61.7%
5-HT3 receptor; at 1 µM
  inhibition of binding on the 5-HT3 receptor (in words): partial inhibition
5-HT3 receptor; [2]
  inhibitions of the selective radiotracer: 20-60%
CB2 receptors
  inhibitions of the selective radiotracer: 20-60%
Kv channel; 0.1 µM, duplicates
  inhibition at 0.1 µM: 30.4%
Kv channel; 1 µM, duplicates
  inhibition at 1 µM: 22.7%
Kv channel; [2]
  inhibitions of the selective radiotracer: 20-60%
Wfs1^ΔExon8 mice
  step-through latency deficit during retention (in words): attenuated the deficit
SIG-1R
  IC50: > 30 µM
  inhibition of the binding / displacement of SIG-1R radioligand (in words): did not inhibit
SIG-1R; at concentrations < 10 µM
  inhibition of [3H](+)-pentazocine binding to SIG-1R (in words): failed to inhibit
SIG-1R; listed as convolamine
  inhibition of the binding / displacement of SIG-1R radioligand (in words): does not displace
